From patent publication US12037344B2, “NLRP3 modulators” (INNATE TUMOR IMMUNITY, INC., priority 2018, dated 2024)
Read-outs that look alike come from different tables or passages of the source.

Legend:
THP-1 cells = assay: Measurement of IL-1β production, hTRF protocol (second alternative procedure), THP-1 cells; format: cell-based, human; settings: Homo sapiens
Outline: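 THP-1 cells differentiated overnight with 50 ng/ml PMA, then plated at 50,000 cells/well in RPMI with 2% FBS onto serial compound dilutions (top final concentration 10 μM) for 2 hours at 37° C. Supernatant IL-1β measured by hTRF (antibodies at 1:40, overnight at 4° C), read at 665/615 nm against a standard curve.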

TLR7 = target: T1, TLR7 (Homo sapiens, UniProt Q9NYK1); assay: In vitro human TLR7 binding reporter assay (HEK-Blue, NF-kB/AP1-inducible SEAP); format: cell-based; settings: read-out: TLR7 Agonist EC50
T1 construct: human HEK-Blue cells co-expressing a TLR7 or TLR8 gene
T1 sequence (Q9NYK1 27-1049): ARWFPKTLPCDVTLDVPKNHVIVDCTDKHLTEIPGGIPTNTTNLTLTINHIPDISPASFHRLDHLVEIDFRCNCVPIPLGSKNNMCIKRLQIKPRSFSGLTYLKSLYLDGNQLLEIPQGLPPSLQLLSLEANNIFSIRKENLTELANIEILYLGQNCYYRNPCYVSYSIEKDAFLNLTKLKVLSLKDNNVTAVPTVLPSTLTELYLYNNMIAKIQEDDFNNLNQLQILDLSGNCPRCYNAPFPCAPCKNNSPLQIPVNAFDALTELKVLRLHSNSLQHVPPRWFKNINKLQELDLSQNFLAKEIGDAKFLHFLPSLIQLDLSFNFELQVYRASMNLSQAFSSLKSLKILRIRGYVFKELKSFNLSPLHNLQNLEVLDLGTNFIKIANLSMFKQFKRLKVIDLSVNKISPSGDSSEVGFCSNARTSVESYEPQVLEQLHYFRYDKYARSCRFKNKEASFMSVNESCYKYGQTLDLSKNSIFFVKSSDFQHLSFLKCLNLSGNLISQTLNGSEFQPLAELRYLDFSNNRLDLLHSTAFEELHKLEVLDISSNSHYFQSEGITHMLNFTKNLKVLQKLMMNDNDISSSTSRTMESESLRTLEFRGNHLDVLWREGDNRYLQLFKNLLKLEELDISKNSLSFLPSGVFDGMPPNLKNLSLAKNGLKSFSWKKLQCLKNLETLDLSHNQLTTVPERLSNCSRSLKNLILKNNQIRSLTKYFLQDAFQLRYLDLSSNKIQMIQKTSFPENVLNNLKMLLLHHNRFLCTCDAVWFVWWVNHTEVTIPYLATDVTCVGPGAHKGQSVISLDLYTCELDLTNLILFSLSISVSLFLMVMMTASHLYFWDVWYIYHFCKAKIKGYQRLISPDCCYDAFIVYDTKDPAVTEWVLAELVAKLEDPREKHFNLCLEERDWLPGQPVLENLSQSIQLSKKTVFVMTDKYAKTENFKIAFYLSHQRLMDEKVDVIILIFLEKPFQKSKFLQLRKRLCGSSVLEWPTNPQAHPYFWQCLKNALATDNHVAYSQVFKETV
Outline: (§1)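 EC50s come from NF-kB/AP1-driven SEAP secretion in HEK-Blue cells expressing TLR7 or TLR8, measured with Quanti-Blue after an 18 h compound incubation. Maximal response is defined by a 50 μM reference standard.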

TLR8 = target: T2, TLR8 (Homo sapiens, UniProt Q9NR97); assay: In vitro human TLR8 binding reporter assay (HEK-Blue, NF-kB/AP1-inducible SEAP); format: cell-based; settings: read-out: TLR8 Agonist EC50
T2 construct: human HEK-Blue cells co-expressing a TLR7 or TLR8 gene
T2 sequence (Q9NR97 27-1041): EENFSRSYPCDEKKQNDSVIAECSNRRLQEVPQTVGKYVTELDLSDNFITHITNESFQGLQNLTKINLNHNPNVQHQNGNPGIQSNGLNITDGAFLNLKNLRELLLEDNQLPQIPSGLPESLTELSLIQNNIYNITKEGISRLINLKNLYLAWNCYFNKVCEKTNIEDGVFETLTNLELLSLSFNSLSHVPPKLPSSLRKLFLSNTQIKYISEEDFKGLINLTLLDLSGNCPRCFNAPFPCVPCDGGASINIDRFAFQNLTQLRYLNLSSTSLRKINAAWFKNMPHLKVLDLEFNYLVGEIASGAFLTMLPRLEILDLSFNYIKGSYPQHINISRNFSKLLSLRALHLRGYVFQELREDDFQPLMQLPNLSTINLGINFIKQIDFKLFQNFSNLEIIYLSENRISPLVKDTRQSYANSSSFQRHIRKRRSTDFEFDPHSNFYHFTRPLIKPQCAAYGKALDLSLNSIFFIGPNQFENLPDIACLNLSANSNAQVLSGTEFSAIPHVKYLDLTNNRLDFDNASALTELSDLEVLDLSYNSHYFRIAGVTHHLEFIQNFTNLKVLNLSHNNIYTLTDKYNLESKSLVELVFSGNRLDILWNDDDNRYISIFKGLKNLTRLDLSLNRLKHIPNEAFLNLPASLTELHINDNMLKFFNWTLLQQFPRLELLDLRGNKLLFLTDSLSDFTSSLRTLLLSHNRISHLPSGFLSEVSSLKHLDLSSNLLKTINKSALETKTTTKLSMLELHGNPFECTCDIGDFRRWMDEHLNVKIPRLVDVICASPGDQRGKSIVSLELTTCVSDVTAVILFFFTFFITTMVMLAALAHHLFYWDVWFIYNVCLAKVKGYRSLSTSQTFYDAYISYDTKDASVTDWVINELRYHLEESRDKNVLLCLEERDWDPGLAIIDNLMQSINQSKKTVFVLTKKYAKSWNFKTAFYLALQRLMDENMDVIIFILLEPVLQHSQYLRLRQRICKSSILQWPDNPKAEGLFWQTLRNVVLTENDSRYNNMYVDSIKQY
Outline: as §1

[1] = THP-1, IL-1β production, human cells, read-out: NLRP3 hILIB EC50
[2] = THP-1, IL-1β production, human, read-out: NLRP3 hILIB EC50

Row | SMILES | EC50 (THP-1 cells; [1]) [µM] | EC50 (TLR7; activity range) [µM] | EC50 (TLR8; activity range) [µM] | EC50 (THP-1 cells; [2]) [µM] | EC50 (TLR7; activity range class) [µM] | EC50 (TLR8; activity range class) [µM] | EC50 (THP-1 cells; THP-1, read-out: NLRP3 hILIB EC50) [µM]
1 | Nc1nc2cc(-c3cc[nH]n3)ccc2c2[nH]c(CCNC(=O)c3csc(Cl)n3)cc12 [Example 485] | 0.08 | > 100 | > 100 |  |  |  | 
2 | COC1CN(Cc2cc3c(N)nc4cc(-c5cc[nH]n5)ccc4c3[nH]2)C1 [Example 479] | 0.08 | > 100 | > 100 |  |  |  | 
3 | CCN(Cc1[nH]c2c(c(N)nc3cc(-c4cc[nH]n4)ccc32)c1C)C(C)=O [Example 470] | 15.3 | > 100 | > 100 |  |  |  | 
4 | CN(C)C(=O)CCn1cc2c(N)nc3cc(-c4cc[nH]n4)ccc3c2n1 [Example 506] | 1.4 | > 100 | > 100 |  |  |  | 
5 | Nc1nc2cc(-c3cc[nH]n3)ccc2c2cn(CCNC(=O)c3cccc(Cl)c3)nc12 [Example 82] |  |  |  | 0.73 | > 100 | 20 to 100 | 
6 | Cc1nc(Cn2cc3c(n2)c(N)nc2cc(-c4cc[nH]n4)ccc23)no1 [Example 174] |  |  |  | 0.23 | 1 to 20 | 20 to 100 | 
7 | CC(C)(Cn1cc2c(N)nc3cc(-c4ccn[nH]4)ccc3c2n1)C(=O)NCC(F)F [Example 596] | 10.1 | > 100 | > 100 |  |  |  | 
8 | NCc1cc2c(N)nc3cc(-n4cccn4)ccc3c2[nH]1 [Example 437] | 0.56 | > 100 | > 100 |  |  |  | 
9 | Nc1nc2cc(-c3cc[nH]n3)ccc2c2cn(CCCNC(=O)c3ccccn3)nc12 [Example 124] |  |  |  | 9.76 | > 100 | > 100 | 
10 | CC(=O)NCc1cc2c(N)nc3cc(-n4cccn4)ccc3c2[nH]1 [Example 445] | 0.66 | > 100 | > 100 |  |  |  | 
11 | CN(CCO)C(=O)Cn1cc2c(n1)c(N)nc1cc(-c3cc[nH]n3)ccc12 [Example 547] | 5.3 | > 100 | > 100 |  |  |  | 
12 | COCCn1cc2c(N)nc3cc(-c4cccs4)ccc3c2n1 [Example 248, 2-(2-methoxyethyl)-7-(thiophen-2-yl)-2H-pyrazolo[4,3-c]quinolin-4-amine] |  |  |  | 0.65 | > 100 | > 100 | 
13 | CN(CCn1cc2c(n1)c(N)nc1cc(-c3cc[nH]n3)ccc12)C(=O)c1ccccc1 [Example 120, N-{2-[4-amino-7-(1H-pyrazol-3-yl)-2H-pyrazolo[3,4-c]quinolin-2-yl]ethyl}-N-methylbenzamide] |  |  |  |  | > 100 | 20 to 100 | 1.87
14 | CNC(=O)C(C)Cn1cc2c(N)nc3cc(-c4cc[nH]n4)ccc3c2n1 (stereo not drawn) [Example 612] | 0.43 | > 100 | > 100 |  |  |  | 
15 | CNC(=O)Cn1cc2c(N)nc3cc(-c4cc[nH]n4)ccc3c2n1 [Example 461] | 0.25 | > 100 | > 100 |  |  |  | 
16 | Nc1nc2cc(-c3cc[nH]n3)ccc2c2nn(CCNC(=O)c3cnccn3)cc12 [Example 201] |  |  |  | 0.48 | > 100 | > 100 | 
17 | Nc1nc2cc(-c3cc[nH]n3)ccc2c2cn(CCOC(F)F)nc12 [Example 397] | 0.34 | 1 to 20 | > 100 |  |  |  | 
18 | Nc1nc2cc(-c3cc[nH]n3)ccc2c2cn(CCNC(=O)c3nccs3)nc12 [Example 97] |  |  |  | 0.23 | > 100 | > 100 | 
19 | CCN(Cc1nc2c(N)nc3cc(-c4ccn[nH]4)ccc3c2s1)C(C)=O [Example 140, N-{[4-amino-7-(1H-pyrazol-3-yl)-[1,3]thiazolo[4,5-c]quinolin-2-yl]methyl}-N-ethylacetamide] |  |  |  | 1.65 | > 100 | > 100 | 
20 | Nc1nc2cc(-c3cc[nH]n3)ccc2c2cn(CCNC(=O)c3cc(Cl)ccn3)nc12 [Example 61] |  |  |  | 0.12 | 20 to 100 | > 100 | 

The next lines start with results.

Row | EC50 (THP-1 cells; [1]) [µM] | EC50 (TLR7; activity range) [µM] | EC50 (TLR8; activity range) [µM] | EC50 (THP-1 cells; [2]) [µM] | EC50 (TLR7; activity range class) [µM] | EC50 (TLR8; activity range class) [µM] | SMILES | EC50 (THP-1 cells; THP-1, read-out: NLRP3 hILIB EC50) [µM]
21 |  |  |  | 0.62 | > 100 | > 100 | Nc1nc2cc(-c3cc[nH]n3)ccc2c2nn(CCC(F)(F)F)cc12 [Example 348] | 
22 |  |  |  | 7.19 | > 100 | > 100 | NC(=O)Cn1cc2c(n1)c(N)nc1cc(-c3ccn[nH]3)ccc12 [Example 191] | 
23 |  |  |  | 0.36 | > 100 | > 100 | Cc1nc(C(=O)NCCn2cc3c(n2)c(N)nc2cc(-c4cccs4)ccc23)co1 [Example 128, N-{2-[4-amino-7-(thiophen-2-yl)-2H-pyrazolo[3,4-c]quinolin-2-yl]ethyl}-2-methyl-1,3-oxazole-4-carboxamide] | 
24 |  |  |  | 0.2 | > 100 | > 100 | Nc1nc2cc(-c3cc[nH]n3)ccc2c2c1cnn2CC(F)F [Example 225] | 
25 |  |  |  | 0.89 | > 100 | > 100 | Cc1cccc(OCCCn2cc3c(n2)c(N)nc2cc(-c4cc[nH]n4)ccc23)c1 [Example 8] | 
26 |  |  |  | 0.19 | > 100 | > 100 | C[C@H](O)Cn1cc2c(N)nc3cc(-c4cc[nH]n4)ccc3c2n1 [Example 369] | 
27 |  |  |  | 0.05 | 20 to 100 | 20 to 100 | Nc1nc2cc(-c3cc[nH]n3)ccc2c2cn(CCNC(=O)c3coc(Cl)n3)nc12 [Example 176] | 
28 |  |  |  | 1.38 | 20 to 100 | > 100 | Nc1nc2cc(-c3cc[nH]n3)ccc2c2cn(CCNC(=O)c3ccccc3)nc12 [Example 36] | 
29 |  |  |  | 1.03 | > 100 | > 100 | Cn1cnc(C(=O)NCCn2cc3c(n2)c(N)nc2cc(-c4cc[nH]n4)ccc23)c1 [Example 87] | 
30 |  |  |  | 0.25 | > 100 | > 100 | CC(O)CCn1cc2c(N)nc3cc(-c4ccn[nH]4)ccc3c2n1 (stereo not drawn) [Example 284] | 
31 | 0.65 | > 100 | > 100 |  |  |  | NC(=O)Cn1cc2c(n1)c(N)nc1cc(-c3ccn[nH]3)ccc12 [Example 541] | 
32 |  |  |  | 0.64 | > 100 | > 100 | Nc1nc2cc(-c3cc[nH]n3)ccc2c2nn(CC(O)CC(F)(F)F)cc12 (single isomer, unassigned) [Example 378] | 
33 |  |  |  | 1.87 | > 100 | > 100 | C[C@H](CO)Cn1ncc2c(N)nc3cc(-c4cc[nH]n4)ccc3c21 [Example 232] | 
